Results: patent publication US9695155B2, “Herbicidal substituted pyrimidinyloxy benzene compounds” (E. I. DU PONT DE NEMOURS AND COMPANY, priority 2013, dated 2017)

Experiments:
barnyardgrass [1] = experiment: Test C flooded paddy test; format: in vivo, Echinochloa crus-galli; settings: Flood, scale 0 to 100 (0 no effect, 100 complete control), 13 to 15 days
Method in brief: (§1)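 Compound was added to standing water 3 cm above soil, flood maintained, and plants held in a greenhouse before visual scoring against controls at 13 to 15 days.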

field bindweed = experiment: Test E preemergence; format: in vivo, Convolvulus arvensis; settings: for Field Bindweed plant response rating: scale 0 to 100 (0 no effect, 100 complete control); for Plant response rating, Field Bindweed: 125 g ai/ha, scale 0 to 100, 0 no effect, 100 complete control
Method in brief: (§2)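 Response was scored visually on a 0-100 scale (100 = complete control) versus controls after 14 to 21 days in the greenhouse. Test chemicals, formulated with surfactant in a non-phytotoxic solvent mixture, had been applied preemergence to seeds in silt loam soil or postemergence to 1- to 4-leaf plants in potting medium.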

sedge, umbrella = experiment: Test C flooded paddy test; format: in vivo, Cyperus difformis; settings: Flood, scale 0 to 100 (0 no effect, 100 complete control), 13 to 15 days
Method in brief: as §1

rice = experiment: Test C flooded paddy test; format: in vivo, Oryza sativa; settings: Flood, scale 0 to 100 (0 no effect, 100 complete control), 13 to 15 days
Method in brief: as §1

johnsongrass = experiment: Test E preemergence; format: in vivo, Sorghum halepense; settings: for Johnsongrass plant response rating: scale 0 to 100 (0 no effect, 100 complete control); for Plant response rating, Johnsongrass: 125 g ai/ha, scale 0 to 100, 0 no effect, 100 complete control
Method in brief: as §2

arrowleaf sida = experiment: Test E preemergence; format: in vivo, Sida rhombifolia; settings: for Arrowleaf Sida plant response rating: scale 0 to 100 (0 no effect, 100 complete control); for Plant response rating, Arrowleaf Sida: scale 0 to 100, 0 no effect, 100 complete control
Method in brief: as §2

corn = experiment: Test E preemergence; format: in vivo, Zea mays; settings: for Corn plant response rating: scale 0 to 100 (0 no effect, 100 complete control); for Plant response rating, Corn: 125 g ai/ha, scale 0 to 100, 0 no effect, 100 complete control
Method in brief: as §2

giant foxtail = experiment: Test E preemergence; format: in vivo, Setaria faberii; settings: for Foxtail, Giant plant response rating: scale 0 to 100 (0 no effect, 100 complete control); for Plant response rating, Foxtail, Giant: 125 g ai/ha, scale 0 to 100, 0 no effect, 100 complete control
Method in brief: as §2

morningglory = experiment: Test E preemergence; format: in vivo, Ipomoea coccinea; settings: for Morningglory plant response rating: scale 0 to 100 (0 no effect, 100 complete control); for Plant response rating, Morningglory: 125 g ai/ha, scale 0 to 100, 0 no effect, 100 complete control
Method in brief: as §2

goosegrass = experiment: Test E preemergence; format: in vivo, Eleusine indica; settings: for Goosegrass plant response rating: scale 0 to 100 (0 no effect, 100 complete control); for Plant response rating, Goosegrass: 125 g ai/ha, scale 0 to 100, 0 no effect, 100 complete control
Method in brief: as §2

barnyardgrass [2] = experiment: Test E preemergence; format: in vivo, Echinochloa crus-galli; settings: for Barnyardgrass plant response rating: scale 0 to 100 (0 no effect, 100 complete control); for Plant response rating, Barnyardgrass: scale 0 to 100, 0 no effect, 100 complete control
Method in brief: as §2

ragweed = experiment: Test A postemergence; format: in vivo, Ambrosia elatior
Method in brief: (§3)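 Visual injury scored 0–100 (100 = complete control) against untreated controls about 10 days after treatment in a greenhouse. Test chemicals, formulated with surfactant in non-phytotoxic solvent, were sprayed on soil preemergence or on 2-10 cm, one- to two-leaf plants postemergence.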

galium = experiment: Test A postemergence; format: in vivo, Galium aparine
Method in brief: as §3

Italian ryegrass [3] = experiment: Test A postemergence; format: in vivo, Lolium multiflorum
Method in brief: as §3

Italian ryegrass [4] = experiment: Test A preemergence; format: in vivo, Lolium multiflorum; settings: for Plant response rating, Ryegrass, Italian: 0 to 100 scale where 0 is no effect and 100 is complete control; for Ryegrass, Italian plant response rating: 500 g ai/ha, 0 to 100 scale, 0 no effect, 100 complete control, approx. 10 days
Method in brief: as §3

[5] = 125 g ai/ha, 0 to 100 scale where 0 is no effect and 100 is complete control
[6] = 500 g ai/ha, 0 to 100 scale where 0 is no effect and 100 is complete control
[7] = 31 g ai/ha, 0 to 100 scale, 0 no effect, 100 complete control

SMILES | Field Bindweed plant response rating (field bindweed; 31 g ai/ha) | Field Bindweed plant response rating (field bindweed; 62 g ai/ha) | Johnsongrass plant response rating (johnsongrass; 31 g ai/ha) | Johnsongrass plant response rating (johnsongrass; 62 g ai/ha) | Arrowleaf Sida plant response rating (arrowleaf sida; 31 g ai/ha, preemergence) | Corn plant response rating (corn; 31 g ai/ha) | Corn plant response rating (corn; 62 g ai/ha) | Foxtail, Giant plant response rating (giant foxtail; 31 g ai/ha) | Foxtail, Giant plant response rating (giant foxtail; 62 g ai/ha) | Morningglory plant response rating (morningglory; 31 g ai/ha) | Morningglory plant response rating (morningglory; 62 g ai/ha) | Goosegrass plant response rating (goosegrass; 31 g ai/ha) | Goosegrass plant response rating (goosegrass; 62 g ai/ha) | Barnyardgrass plant response rating (barnyardgrass [2]; 31 g ai/ha, preemergence) | Field Bindweed plant response rating (field bindweed; 16 g ai/ha) | Plant response rating, Field Bindweed (field bindweed) | Plant response rating, Johnsongrass (johnsongrass) | Arrowleaf Sida plant response rating (arrowleaf sida; 16 g ai/ha, preemergence) | Plant response rating, Arrowleaf Sida (arrowleaf sida; preemergence, 125 g ai/ha) | Plant response rating, Ryegrass, Italian (Italian ryegrass [4]; 125 g ai/ha) | also measured
FC(F)c1cccc(Oc2ncc(Cl)cn2)c1-n1cc(Br)cn1 [Compound 194, 2-[2-(4-bromo-1H-pyrazol-1-yl)-3-(difluoromethyl)phenoxy]-5-chloropyrimidine] | 0 | 40 | 0 | 50 | 35 | 0 | 0 | 25 | 75 | 0 | 0 | 40 | 75 | 0 | – | – | – | – | – | – | Plant response rating, Barnyardgrass (barnyardgrass [1]; 31 g ai/ha): 0; Plant response rating, Barnyardgrass (barnyardgrass [1]; 62 g ai/ha): 0; Plant response rating, Barnyardgrass (barnyardgrass [1]; 125 g ai/ha): 0; Plant response rating, Barnyardgrass (barnyardgrass [1]; 250 g ai/ha): 0; Plant response rating, Sedge, Umbrella (sedge, umbrella; 31 g ai/ha): 50; Plant response rating, Sedge, Umbrella (sedge, umbrella; 62 g ai/ha): 75; Plant response rating, Sedge, Umbrella (sedge, umbrella; 125 g ai/ha): 85; Plant response rating, Sedge, Umbrella (sedge, umbrella; 250 g ai/ha): 95; Plant response rating, Rice (rice; 31 g ai/ha): 10; Plant response rating, Rice (rice; 62 g ai/ha): 10; Plant response rating, Rice (rice; 125 g ai/ha): 10; Plant response rating, Rice (rice; 250 g ai/ha): 10; Arrowleaf Sida plant response rating (arrowleaf sida; 62 g ai/ha, preemergence): 100; Barnyardgrass plant response rating (barnyardgrass [2]; 62 g ai/ha, preemergence): 0
N#Cc1cccc(Oc2ncc(F)cn2)c1-n1cc(I)cn1 [Compound 86] | 10 | 20 | 0 | 65 | 5 | 0 | 0 | 15 | 30 | 10 | 30 | 0 | 50 | 0 | 0 | 90 | 65 | 0 | 100 | 10 | Plant response rating, Ragweed (ragweed; [5]): 90; Plant response rating, Ragweed (ragweed; [6]): 100; Plant response rating, Galium (galium; [5]): 100; Plant response rating, Galium (galium; [6]): 100; Johnsongrass plant response rating (johnsongrass; 16 g ai/ha): 0; Plant response rating, Ryegrass, Italian (Italian ryegrass [3]; [5]): 80; Plant response rating, Ryegrass, Italian (Italian ryegrass [3]; [6]): 100; Plant response rating, Arrowleaf Sida (arrowleaf sida; Preemergence, 62 g ai/ha): 60; Ryegrass, Italian plant response rating (Italian ryegrass [4]): 60; Corn plant response rating (corn; 16 g ai/ha): 0; Plant response rating, Corn (corn): 5; Foxtail, Giant plant response rating (giant foxtail; 16 g ai/ha): 0; Plant response rating, Foxtail, Giant (giant foxtail): 100; Morningglory plant response rating (morningglory; 16 g ai/ha): 0; Plant response rating, Morningglory (morningglory): 75; Goosegrass plant response rating (goosegrass; 16 g ai/ha): 0; Plant response rating, Goosegrass (goosegrass): 50; Barnyardgrass plant response rating (barnyardgrass [2]; 16 g ai/ha, preemergence): 0; Plant response rating, Barnyardgrass (barnyardgrass [2]; Preemergence, 62 g ai/ha): 0; Plant response rating, Barnyardgrass (barnyardgrass [2]; preemergence, 125 g ai/ha): 30
N#Cc1cccc(Oc2ncc(Br)cn2)c1-n1cc(I)cn1 [Compound 88] | 0 | 0 | 0 | 15 | 40 | 0 | 35 | 0 | 0 | 0 | 10 | 0 | 5 | 0 | 0 | 50 | 15 | 30 | 35 | 20 | Plant response rating, Ragweed (ragweed; [5]): 10; Plant response rating, Ragweed (ragweed; [6]): 30; Plant response rating, Galium (galium; [5]): 100; Plant response rating, Galium (galium; [6]): 100; Johnsongrass plant response rating (johnsongrass; 16 g ai/ha): 0; Plant response rating, Ryegrass, Italian (Italian ryegrass [3]; [5]): 50; Plant response rating, Ryegrass, Italian (Italian ryegrass [3]; [6]): 90; Plant response rating, Arrowleaf Sida (arrowleaf sida; Preemergence, 62 g ai/ha): 10; Ryegrass, Italian plant response rating (Italian ryegrass [4]): 30; Corn plant response rating (corn; 16 g ai/ha): 0; Plant response rating, Corn (corn): 35; Foxtail, Giant plant response rating (giant foxtail; 16 g ai/ha): 0; Plant response rating, Foxtail, Giant (giant foxtail): 25; Morningglory plant response rating (morningglory; 16 g ai/ha): 0; Plant response rating, Morningglory (morningglory): 15; Goosegrass plant response rating (goosegrass; 16 g ai/ha): 0; Plant response rating, Goosegrass (goosegrass): 5; Barnyardgrass plant response rating (barnyardgrass [2]; 16 g ai/ha, preemergence): 0; Plant response rating, Barnyardgrass (barnyardgrass [2]; Preemergence, 62 g ai/ha): 0; Plant response rating, Barnyardgrass (barnyardgrass [2]; preemergence, 125 g ai/ha): 0
N#Cc1cnn(-c2c(CF)cccc2Oc2ncc(F)cn2)c1 [Compound 151] | 0 | 20 | 0 | 35 | 80 | 0 | 0 | 25 | 60 | 0 | 0 | 0 | 70 | 20 | 0 | 35 | 70 | 60 | 100 | 0 | Plant response rating, Ragweed (ragweed; [7]): 50; Ragweed plant response rating (ragweed; [5]): 100; Plant response rating, Galium (galium; [7]): 10; Galium plant response rating (galium; [5]): 40; Plant response rating, Ryegrass, Italian (Italian ryegrass [3]; [7]): 0; Ryegrass, Italian plant response rating (Italian ryegrass [3]; [5]): 30; Arrowleaf Sida plant response rating (arrowleaf sida; 62 g ai/ha, preemergence): 100; Plant response rating, Ryegrass, Italian (Italian ryegrass [4]; 31 g ai/ha, visual, approximately 10 days): 0; Corn plant response rating (corn; 16 g ai/ha): 0; Plant response rating, Corn (corn): 0; Foxtail, Giant plant response rating (giant foxtail; 16 g ai/ha): 0; Plant response rating, Foxtail, Giant (giant foxtail): 95; Plant response rating, Morningglory (morningglory): 0; Plant response rating, Goosegrass (goosegrass): 85; Barnyardgrass plant response rating (barnyardgrass [2]; 16 g ai/ha, preemergence): 0; Barnyardgrass plant response rating (barnyardgrass [2]; 62 g ai/ha, preemergence): 10; Plant response rating, Barnyardgrass (barnyardgrass [2]; preemergence, 125 g ai/ha): 75
